Experimental data taken from patent US12723063B2, “GIPR-agonist compounds” (Eli Lilly and Company, priority 2019, dated 2026).
*1 amine or outer side, *2 acyl side, *3 side chain or, on linkers, in order; H or OH if unused. Where a SMILES comes first, the peptide text is derived from it. Side-chain parts run from the residue outwards. [ ]: non-standard residue; d: D form. The star is where a group is joined. C20 diacid = O=C(O)CCCCCCCCCCCCCCCCCCC(=O)*; C18 diacid = O=C(O)CCCCCCCCCCCCCCCCC(=O)*; αMePhe(2-F) = C[C@](N)(Cc1ccccc1F)C(=O)O; γGlu = O=C(O)[C@H](CCC(=O)[*:2])N[*:1]; 4Pal = N[C@@H](Cc1ccncc1)C(=O)O; αMeL = CC(C)C[C@](C)(N)C(=O)O; Orn = NCCC[C@H](N)C(=O)O; AEEA = NCCOCCOCC(=O)O; Aib = CC(C)(N)C(=O)O

What was measured:
human GIPR = molecular target: T1, human GIPR (Homo sapiens, UniProt P48546); test: [125I]-GIP binding, SPA with WGA beads, 0.1% bacitracin; settings: geometric mean, read-out: hGIPR Ki
T1 construct: expressed in transfected cells; crude membranes
T1 sequence (P48546 22-466): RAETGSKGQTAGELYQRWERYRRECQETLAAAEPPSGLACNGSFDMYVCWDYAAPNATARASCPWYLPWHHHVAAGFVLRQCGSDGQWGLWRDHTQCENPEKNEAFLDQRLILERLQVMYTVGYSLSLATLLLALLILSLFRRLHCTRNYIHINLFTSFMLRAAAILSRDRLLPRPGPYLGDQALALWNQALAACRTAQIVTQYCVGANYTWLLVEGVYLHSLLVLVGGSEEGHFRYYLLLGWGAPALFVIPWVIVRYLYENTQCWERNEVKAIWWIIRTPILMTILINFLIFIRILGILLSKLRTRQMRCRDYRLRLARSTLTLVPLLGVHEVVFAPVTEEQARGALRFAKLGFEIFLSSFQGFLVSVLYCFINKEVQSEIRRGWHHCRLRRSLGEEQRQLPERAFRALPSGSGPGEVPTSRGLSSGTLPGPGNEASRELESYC
How it was run: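 Ki values are geometric means (SEM, n independent days), derived from four-parameter nonlinear regression of IC50. Membranes came from hGIPR-expressing CHO cells.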

human GLP-1R = molecular target: T2, human GLP-1R (Homo sapiens, UniProt P43220); test: [125I]-GLP-1 binding, SPA with WGA beads, 0.1% bacitracin; settings: geometric mean, read-out: hGLP1R Ki
T2 construct: expressed in transfected cells; crude membranes
T2 sequence (P43220 24-463): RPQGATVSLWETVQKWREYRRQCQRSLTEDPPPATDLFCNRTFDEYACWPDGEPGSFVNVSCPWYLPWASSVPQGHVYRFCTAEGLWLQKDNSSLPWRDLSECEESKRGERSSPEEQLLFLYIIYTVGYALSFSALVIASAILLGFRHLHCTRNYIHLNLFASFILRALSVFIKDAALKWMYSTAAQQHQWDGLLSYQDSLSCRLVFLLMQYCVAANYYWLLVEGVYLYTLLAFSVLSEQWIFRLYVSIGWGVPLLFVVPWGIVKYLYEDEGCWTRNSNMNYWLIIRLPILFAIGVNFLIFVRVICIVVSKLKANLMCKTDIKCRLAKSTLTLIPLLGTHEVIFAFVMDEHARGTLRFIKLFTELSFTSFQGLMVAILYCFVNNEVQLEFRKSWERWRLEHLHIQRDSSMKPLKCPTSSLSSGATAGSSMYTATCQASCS
How it was run: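 Binding buffer was 25 mM HEPES pH 7.4 with 2.5 mM CaCl2, 1 mM MgCl2, 0.1% (w/v) bacitracin, 0.003% Tween-20 and EDTA-free protease inhibitors. Four-parameter regression gave IC50, converted to Ki (geometric mean, SEM, n independent days).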

SMILES | Ki (human GIPR) [nM] | Ki (human GLP-1R) [nM]
CC[C@H](C)[C@H](NC(=O)[C@H](CCCN)NC(=O)[C@H](CC(=O)O)NC(=O)[C@H](CC(C)C)NC(=O)[C@](C)(CC(C)C)NC(=O)[C@@H](NC(=O)[C@H](CO)NC(=O)[C@H](Cc1ccc(O)cc1)NC(=O)[C@H](CC(=O)O)NC(=O)[C@H](CO)NC(=O)[C@@H](NC(=O)[C@H](Cc1ccccc1)NC(=O)[C@@H](NC(=O)CNC(=O)[C@H](CCC(=O)O)NC(=O)C(C)(C)NC(=O)[C@@H](N)Cc1ccc(O)cc1)[C@@H](C)O)[C@@H](C)CC)[C@@H](C)CC)C(=O)N[C@@H](Cc1c[nH]cn1)C(=O)N[C@@H](CCC(N)=O)C(=O)NC(C)(C)C(=O)N[C@@H](CCC(=O)O)C(=O)N[C@@H](Cc1ccccc1)C(=O)N[C@H](C(=O)N[C@@H](CCC(=O)O)C(=O)N[C@@H](Cc1ccc(O)cc1)C(=O)N[C@@H](CCCCNC(=O)COCCOCCNC(=O)COCCOCCNC(=O)CC[C@H](NC(=O)CCCCCCCCCCCCCCCCCCC(=O)O)C(=O)O)C(=O)N[C@@H](CC(C)C)C(=O)N[C@@H](CCC(=O)O)C(=O)N[C@@H](CCC(N)=O)C(=O)NCC(=O)N1CCC[C@H]1C(=O)N[C@@H](CO)C(=O)N[C@@H](CO)C(=O)NCC(=O)N[C@@H](C)C(=O)N1CCC[C@H]1C(=O)N1CCC[C@H]1C(=O)N1CCC[C@H]1C(=O)N[C@@H](CO)C(N)=O)C(C)C [Example 106] (H-Y[Aib]EGTFISDYSI[αMeL]LD[Orn]IHQ[Aib]EFVEYK([AEEA-AEEA-γGlu-C20 diacid])LEQGPSSGAPPPS-NH2) | 0.0918 | > 910
CC[C@H](C)[C@H](NC(=O)[C@H](CCCN)NC(=O)[C@H](CC(=O)O)NC(=O)[C@H](CC(C)C)NC(=O)[C@](C)(CC(C)C)NC(=O)[C@@H](NC(=O)[C@H](CO)NC(=O)[C@H](Cc1ccc(O)cc1)NC(=O)[C@H](CC(=O)O)NC(=O)[C@H](CO)NC(=O)[C@@H](NC(=O)[C@H](Cc1ccccc1)NC(=O)[C@@H](NC(=O)CNC(=O)[C@H](CCC(=O)O)NC(=O)C(C)(C)NC(=O)[C@@H](N)Cc1ccc(O)cc1)[C@@H](C)O)[C@@H](C)CC)[C@@H](C)CC)C(=O)N[C@@H](Cc1c[nH]cn1)C(=O)N[C@@H](CCC(N)=O)C(=O)NC(C)(C)C(=O)N[C@@H](CC(=O)O)C(=O)N[C@@H](Cc1ccccc1)C(=O)N[C@H](C(=O)N[C@@H](CCC(=O)O)C(=O)N[C@@H](Cc1ccc(O)cc1)C(=O)N[C@@H](CCCCNC(=O)COCCOCCNC(=O)COCCOCCNC(=O)CC[C@H](NC(=O)CCCCCCCCCCCCCCCCC(=O)O)C(=O)O)C(=O)N[C@@H](CC(C)C)C(=O)N[C@@H](CCC(=O)O)C(=O)NCC(=O)NCC(=O)N1CCC[C@H]1C(=O)N[C@@H](CO)C(=O)N[C@@H](CO)C(=O)NCC(=O)N[C@@H](C)C(=O)N1CCC[C@H]1C(=O)N1CCC[C@H]1C(=O)N1CCC[C@H]1C(=O)N[C@@H](CO)C(N)=O)C(C)C [Example 103] (H-Y[Aib]EGTFISDYSI[αMeL]LD[Orn]IHQ[Aib]DFVEYK([AEEA-AEEA-γGlu-C18 diacid])LEGGPSSGAPPPS-NH2) | 0.0405 | > 913
CC[C@H](C)[C@H](NC(=O)[C@H](CO)NC(=O)[C@H](Cc1ccc(O)cc1)NC(=O)[C@H](CC(=O)O)NC(=O)[C@H](CO)NC(=O)[C@@H](NC(=O)[C@](C)(Cc1ccccc1F)NC(=O)[C@@H](NC(=O)CNC(=O)[C@H](CCC(=O)O)NC(=O)C(C)(C)NC(=O)[C@@H](N)Cc1ccc(O)cc1)[C@@H](C)O)[C@@H](C)CC)C(=O)N[C@@H](C)C(=O)N[C@@H](CC(C)C)C(=O)N[C@@H](CC(=O)O)C(=O)N[C@@H](CCCCN)C(=O)N[C@H](C(=O)N[C@@H](Cc1c[nH]cn1)C(=O)N[C@@H](CCC(N)=O)C(=O)NC(C)(C)C(=O)N[C@@H](CCC(=O)O)C(=O)N[C@@H](Cc1ccccc1)C(=O)N[C@H](C(=O)N[C@@H](CC(N)=O)C(=O)N[C@@H](Cc1ccc(O)cc1)C(=O)N[C@@H](CCCCNC(=O)COCCOCCNC(=O)COCCOCCNC(=O)CC[C@H](NC(=O)CCCCCCCCCCCCCCCCC(=O)O)C(=O)O)C(=O)N[C@@H](CC(C)C)C(=O)N[C@@H](C)C(=O)NCC(=O)NCC(=O)N1CCC[C@H]1C(=O)N[C@@H](CO)C(=O)N[C@@H](CO)C(=O)NCC(=O)N[C@@H](C)C(=O)N1CCC[C@H]1C(=O)N1CCC[C@H]1C(=O)N1CCC[C@H]1C(=O)N[C@@H](CO)C(N)=O)C(C)C)[C@@H](C)CC [Example 94] (H-Y[Aib]EGT[αMePhe(2-F)]ISDYSIALDKIHQ[Aib]EFVNYK([AEEA-AEEA-γGlu-C18 diacid])LAGGPSSGAPPPS-NH2) | 0.031 | > 909
CC[C@H](C)[C@H](NC(=O)[C@H](Cc1ccccc1)NC(=O)[C@@H](NC(=O)CNC(=O)[C@H](CCC(=O)O)NC(=O)C(C)(C)NC(=O)[C@@H](N)Cc1ccc(O)cc1)[C@@H](C)O)C(=O)N[C@@H](CO)C(=O)N[C@@H](CC(=O)O)C(=O)N[C@@H](Cc1ccc(O)cc1)C(=O)N[C@@H](CO)C(=O)N[C@H](C(=O)N[C@@](C)(CC(C)C)C(=O)N[C@@H](CC(C)C)C(=O)N[C@@H](CC(=O)O)C(=O)N[C@@H](CCCCN)C(=O)N[C@@H](CCCCNC(=O)COCCOCCNC(=O)COCCOCCNC(=O)CC[C@H](NC(=O)CCCCCCCCCCCCCCCCCCC(=O)O)C(=O)O)C(=O)N[C@@H](Cc1c[nH]cn1)C(=O)N[C@@H](CCC(N)=O)C(=O)NC(C)(C)C(=O)N[C@@H](CC(=O)O)C(=O)N[C@@H](Cc1ccccc1)C(=O)N[C@H](C(=O)N[C@@H](CCC(=O)O)C(=O)N[C@@H](Cc1ccncc1)C(=O)N[C@@H](CC(C)C)C(=O)N[C@@H](CC(C)C)C(=O)N[C@@H](CCC(=O)O)C(=O)N[C@@H](C)C(=O)NCC(=O)N1CCC[C@H]1C(=O)N[C@@H](CO)C(=O)N[C@@H](CO)C(=O)NCC(=O)N[C@@H](C)C(=O)N1CCC[C@H]1C(=O)N1CCC[C@H]1C(=O)N1CCC[C@H]1C(=O)N[C@@H](CO)C(N)=O)C(C)C)[C@@H](C)CC [Example 3] | 0.0525 | 381
CC[C@H](C)[C@H](NC(=O)[C@H](CO)NC(=O)[C@H](Cc1ccc(O)cc1)NC(=O)[C@H](CC(=O)O)NC(=O)[C@H](CO)NC(=O)[C@@H](NC(=O)[C@](C)(Cc1ccccc1F)NC(=O)[C@@H](NC(=O)CNC(=O)[C@H](CCC(=O)O)NC(=O)C(C)(C)NC(=O)[C@@H](N)Cc1ccc(O)cc1)[C@@H](C)O)[C@@H](C)CC)C(=O)N[C@@H](C)C(=O)N[C@@H](CC(C)C)C(=O)N[C@@H](CC(=O)O)C(=O)N[C@@H](CCCCN)C(=O)N[C@H](C(=O)N[C@@H](Cc1c[nH]cn1)C(=O)N[C@@H](CCC(N)=O)C(=O)NC(C)(C)C(=O)N[C@@H](CC(=O)O)C(=O)N[C@@H](Cc1ccccc1)C(=O)N[C@H](C(=O)N[C@@H](CCC(=O)O)C(=O)N[C@@H](Cc1ccncc1)C(=O)N[C@@H](CCCCNC(=O)COCCOCCNC(=O)COCCOCCNC(=O)CC[C@H](NC(=O)CCCCCCCCCCCCCCCCCCC(=O)O)C(=O)O)C(=O)N[C@@H](CC(C)C)C(=O)N[C@@H](CCC(=O)O)C(=O)N[C@@H](CCC(N)=O)C(=O)NCC(=O)N1CCC[C@H]1C(=O)N[C@@H](CO)C(=O)N[C@@H](CO)C(=O)NCC(=O)N[C@@H](C)C(=O)N1CCC[C@H]1C(=O)N1CCC[C@H]1C(=O)N1CCC[C@H]1C(=O)N[C@@H](CO)C(N)=O)C(C)C)[C@@H](C)CC [Example 114] (H-Y[Aib]EGT[αMePhe(2-F)]ISDYSIALDKIHQ[Aib]DFVE[4Pal]K([AEEA-AEEA-γGlu-C20 diacid])LEQGPSSGAPPPS-NH2) | 0.121 | > 921
CC[C@H](C)[C@H](NC(=O)[C@H](CO)NC(=O)[C@H](Cc1ccc(O)cc1)NC(=O)[C@H](CC(=O)O)NC(=O)[C@H](CO)NC(=O)[C@@H](NC(=O)[C@H](Cc1ccccc1)NC(=O)[C@@H](NC(=O)CNC(=O)[C@H](CCC(=O)O)NC(=O)[C@@H](C)NC(=O)[C@@H](N)Cc1ccc(O)cc1)[C@@H](C)O)[C@@H](C)CC)C(=O)N[C@@H](CC(C)C)C(=O)N[C@@H](CC(C)C)C(=O)N[C@@H](CC(=O)O)C(=O)N[C@@H](CCCCN)C(=O)N[C@@H](CCCCNC(=O)COCCOCCNC(=O)COCCOCCNC(=O)CC[C@H](NC(=O)CCCCCCCCCCCCCCCCC(=O)O)C(=O)O)C(=O)N[C@@H](C)C(=O)N[C@@H](CCC(N)=O)C(=O)NC(C)(C)C(=O)N[C@@H](CCC(=O)O)C(=O)N[C@@H](Cc1ccccc1)C(=O)N[C@H](C(=O)N[C@@H](CC(N)=O)C(=O)N[C@@H](Cc1c[nH]c2ccccc12)C(=O)N[C@@H](CC(C)C)C(=O)N[C@@H](CC(C)C)C(=O)N[C@@H](C)C(=O)N[C@@H](CCC(N)=O)C(=O)NCC(=O)N1CCC[C@H]1C(=O)N[C@@H](CO)C(=O)N[C@@H](CO)C(=O)NCC(=O)N[C@@H](C)C(=O)N1CCC[C@H]1C(=O)N1CCC[C@H]1C(=O)N1CCC[C@H]1C(=O)N[C@@H](CO)C(N)=O)C(C)C [Example 20] (H-Y[dA]EGTFISDYSILLDKK([AEEA-AEEA-γGlu-C18 diacid])AQ[Aib]EFVNWLLAQGPSSGAPPPS-NH2) | 0.0477 | 79.8
